Experimental data from PMC10675646 (Viruses, 2023).
pKd: −log10 of the molar value. Where a SMILES comes first, the peptide text is derived from it. The star is where a group is joined. 5FAM = O=C1OC2(c3ccc(O)cc3Oc3cc(O)ccc32)c2ccc(C(=O)*)cc21; Ahx = NCCCCCC(=O)O

Biological target: T1, 6xHis-SUMO-TRAF2 (residues 315–501) TRAF-C domain (Homo sapiens, UniProt Q12933)
T1 sequence (Q12933 315-501): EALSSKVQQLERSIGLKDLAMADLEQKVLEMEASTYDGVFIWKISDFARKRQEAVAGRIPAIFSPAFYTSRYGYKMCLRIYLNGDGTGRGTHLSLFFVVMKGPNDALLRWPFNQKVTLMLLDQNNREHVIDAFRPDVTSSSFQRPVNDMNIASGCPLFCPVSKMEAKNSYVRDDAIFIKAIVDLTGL
Test: Fluorescence polarization (FP) binding assay, TRAF2 TRAF-C domain
Conditions: summary range stated for TRAF2 and TRAF3 TRAF-C together, read-out: Binding affinities between the PIQAS peptide and SUMO-TRAF-C proteins (range)

**Q.** How did the pKd turn out when `CC[C@H](C)[C@H](NC(=O)[C@@H]1CCCN1C(=O)CCCCCNC(=O)c1ccc2c(c1)C(=O)OC21c2ccc(O)cc2Oc2cc(O)ccc21)C(=O)N[C@@H](CCC(N)=O)C(=O)N[C@@H](C)C(=O)N[C@@H](CO)C(N)=O` [PIQAS peptide] ({5FAM-Ahx}-PIQAS-NH2) was run?
**A.** The pKd was 3.70 to 3.82.
